The values below come from PubChem BioAssay AID1224891.

Molecules are shown by their SMILES. pIC50: −log10 of the molar value.

The target in this test is Tyrosine-protein kinase JAK3 (Homo sapiens) (UniProt P52333). As to the kind of experiment: JAK3 kinase inhibitors, dose response, biochemical, purified enzyme (AID 1224891). As to conditions: recombinant JAK3 kinase domain, 32P-ATP radiometric.
Chain of Tyrosine-protein kinase JAK3 (Homo sapiens) (P52333 whole entry, looked up, the tested form may be a part): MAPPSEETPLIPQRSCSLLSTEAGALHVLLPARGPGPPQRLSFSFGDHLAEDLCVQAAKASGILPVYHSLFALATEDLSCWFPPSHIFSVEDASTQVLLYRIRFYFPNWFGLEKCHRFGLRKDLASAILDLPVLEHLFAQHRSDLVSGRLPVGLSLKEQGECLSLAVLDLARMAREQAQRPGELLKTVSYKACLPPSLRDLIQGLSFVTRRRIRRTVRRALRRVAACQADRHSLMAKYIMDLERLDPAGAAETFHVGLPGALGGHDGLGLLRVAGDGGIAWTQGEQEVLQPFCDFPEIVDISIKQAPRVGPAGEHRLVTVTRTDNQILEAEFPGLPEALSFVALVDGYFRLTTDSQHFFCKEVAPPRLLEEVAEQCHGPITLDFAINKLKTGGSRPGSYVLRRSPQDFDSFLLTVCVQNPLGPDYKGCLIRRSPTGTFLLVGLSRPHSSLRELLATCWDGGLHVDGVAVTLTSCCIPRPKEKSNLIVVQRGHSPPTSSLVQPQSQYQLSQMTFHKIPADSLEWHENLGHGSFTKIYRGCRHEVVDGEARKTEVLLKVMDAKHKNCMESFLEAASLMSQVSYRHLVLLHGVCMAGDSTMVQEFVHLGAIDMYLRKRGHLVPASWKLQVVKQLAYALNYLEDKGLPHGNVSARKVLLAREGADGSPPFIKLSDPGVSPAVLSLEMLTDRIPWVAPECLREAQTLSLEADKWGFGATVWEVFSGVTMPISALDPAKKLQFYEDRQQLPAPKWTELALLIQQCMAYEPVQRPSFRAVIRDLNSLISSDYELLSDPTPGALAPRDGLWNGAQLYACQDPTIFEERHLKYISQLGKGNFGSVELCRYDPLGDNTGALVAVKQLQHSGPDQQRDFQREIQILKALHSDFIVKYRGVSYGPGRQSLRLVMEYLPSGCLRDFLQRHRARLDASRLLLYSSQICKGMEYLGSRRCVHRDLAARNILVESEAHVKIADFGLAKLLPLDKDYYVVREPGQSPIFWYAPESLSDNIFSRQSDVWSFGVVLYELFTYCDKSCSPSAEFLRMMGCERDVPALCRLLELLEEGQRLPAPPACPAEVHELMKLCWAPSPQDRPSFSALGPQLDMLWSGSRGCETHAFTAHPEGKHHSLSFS

As usually defined, the pIC50 is −log10 of the IC50, conventionally taken in molar units. `CCOC(=O)c1c[nH]c2ncnc(-c3cc(NC(=O)CC)ccc3F)c12`: the pIC50 is 5.72.
